{
  "source": "patent US20050153872A1",
  "about": "“Methods and compositions for the treatment of infection” (priority 2004, published 2005)",
  "molecules": {"B1": {"name": "NH2-colicinIa-I626-GFTFSDYYMS-COOH (protein)", "chain": "SDPVARGITNPGAESLGYDSDGHEIMAVASPIYVASNPPRVASPVFHGTPPAWSSFGNKTIWGGNEWVASPDSPTRSDIEKRDKEITAYKNTLSAQQKENENKRTEAGKRLSAAIAAREKDENTLKTLRAGNADAADITRQEFRLLQAELREYGFRTEIAGYDALRLHTESRMLFADADSLRISPREARSLIEQAEKRQKDAQNADKKAADMLAEYERRKGILDTRLSELEKNGGAALAVLDAQQARLLGQQTRNDRAISEARNKLSSVTESLNTARNALTRAEQQLTQQKNTPDGKTIVSPEKFPGRSSTNHSIVVSGDPRFAGTIKITTSAVIDNRANLNYLLSHSGLDYKRNILNDRNPVVTEDVEGDKKIYNAEVALAEWDKLRQRLLDARNKITSAESAVASNSARNNLSARTNEQKHANDALNALLKEKENIRNQLSGINQKIAEEKRKQDELKATKDAINFTTEFLKSVSEKYGAKAEQLAREMAGQAKGKKIRNVEEALKTYEKYRADINKKINAKDRAAIAAALESVKLSDISSNLNRFSRGLGYAGKFTSLADWITEFGKAVARGTENWRPLFVKTETIIAGNAATALVALALVFSILTGSALGIIGYGLLMAVTGALIDESLVEKANKFWGIGFTFSDYYMS", "modifications": "G28 - S37 from HBV HBsAg ScFV linked to Colicin Ia", "notes": "heavy chain CDR1 of HBV HBsAg ScFv linked to colicin Ia at residue 626"}, "B2": {"name": "NH2-colicinIa-I626-DEADYYCNSRDS-COOH (protein)", "chain": "SDPVARGITNPGAESLGYDSDGHEIMAVASPIYVASNPPRVASPVFHGTPPAWSSFGNKTIWGGNEWVASPDSPTRSDIEKRDKEITAYKNTLSAQQKENENKRTEAGKRLSAAIAAREKDENTLKTLRAGNADAADITRQEFRLLQAELREYGFRTEIAGYDALRLHTESRMLFADADSLRISPREARSLIEQAEKRQKDAQNADKKAADMLAEYERRKGILDTRLSELEKNGGAALAVLDAQQARLLGQQTRNDRAISEARNKLSSVTESLNTARNALTRAEQQLTQQKNTPDGKTIVSPEKFPGRSSTNHSIVVSGDPRFAGTIKITTSAVIDNRANLNYLLSHSGLDYKRNILNDRNPVVTEDVEGDKKIYNAEVALAEWDKLRQRLLDARNKITSAESAVASNSARNNLSARTNEQKHANDALNALLKEKENIRNQLSGINQKIAEEKRKQDELKATKDAINFTTEFLKSVSEKYGAKAEQLAREMAGQAKGKKIRNVEEALKTYEKYRADINKKINAKDRAAIAAALESVKLSDISSNLNRFSRGLGYAGKFTSLADWITEFGKAVARGTENWRPLFVKTETIIAGNAATALVALALVFSILTGSALGIIGYGLLMAVTGALIDESLVEKANKFWGIDEADYYCNSRDS", "modifications": "E217 - S228 from HBV HBsAg ScFV linked to Colicin Ia", "notes": "light chain CDR3 of HBV HBsAg ScFv linked to colicin Ia at residue 626"}, "B3": {"name": "NH2-colicin Ia-I626-SYAIS-…-AAWDDSLH-COOH (protein)", "chain": "MSDPVARGITNPGAESLGYDSDGHEIMAVASPIYVASNPPRVASPVFHGTPPAWSSFGNKTIWGGNEWVASPDSPTRSDIEKRDKEITAYKNTLSAQQKENENKRTEAGKRLSAAIAAREKDENTLKTLRAGNADAADITRQEFRLLQAELREYGFRTEIAGYDALRLHTESRMLFADADSLRISPREARSLIEQAEKRQKDAQNADKKAADMLAEYERRKGILDTRLSELEKNGGAALAVLDAQQARLLGQQTRNDRAISEARNKLSSVTESLNTARNALTRAEQQLTQQKNTPDGKTIVSPEKFPGRSSTNHSIVVSGDPRFAGTIKITTSAVIDNRANLNYLLSHSGLDYKRNILNDRNPVVTEDVEGDKKIYNAEVALAEWDKLRQRLLDARNKITSAESAVASNSARNNLSARTNEQKHANDALNALLKEKENIRNQLSGINQKIAEEKRKQDELKATKDAINFTTEFLKSVSEKYGAKAEQLAREMAGQAKGKKIRNVEEALKTYEKYRADINKKINAKDRAAIAAALESVKLSDISSNLNRFSRGLGYAGKFTSLADWITEFGKAVARGTENWRPLFVKTETIIAGNAATALVALALVFSILTGSALGIIGYGLLMAVTGALIDESLVEKANKFWGISYAISWVARGQAAGQGLEWMGAAWDDSLH", "modifications": "CDRs from HBV PreS-1 ScFv linked to colicin Ia", "notes": "two CDRs from PreS-1 (Genbank AF427148) of HBV ScFv linked to colicin Ia"}},
  "key": {"[1]": {"system": "Aspergillus niger SWA 1011 strain", "assay": "In vitro cell growth inhibition assay", "settings": "Ph-CA 5 μg/ml; Ph-SA 5 μg/ml; amphotericin B 200 ng/ml; Fluconazole 3 μg/ml"}, "[2]": {"system": "Candida albicans ATCC 10231", "assay": "In vitro cell growth inhibition assay (OD595, filaments)", "settings": "Ph-CA 5 μg/ml; Ph-SA 5 μg/ml; ampicillin 50 μg/ml; amphotericin B 200 ng/ml; fluconazole 3 μg/ml"}, "[3]": {"system": "SMMC-7721 cells transfected with HCV", "assay_type": "cell-based, human", "settings": "about 100 micrograms per ml"}},
  "data": [
    {"molecule": "C[C@@H]1[C@H](O)[C@@H](C)/C=C/C=C/C=C/C=C/C=C/C=C/C=C/[C@H](O[C@@H]2O[C@H](C)[C@@H](O)[C@H](N)[C@@H]2O)C[C@@H]2O[C@](O)(C[C@@H](O)C[C@@H](O)[C@H](O)CC[C@@H](O)C[C@@H](O)CC(=O)O[C@H]1C)C[C@H](O)[C@H]2C(=O)O", "note": "[amphotericin B]", "values": [
      {"measurement": "effect on growth of Aspergillus niger", "setting": "[1]", "value": "inhibited Aspergillus niger growth"},
      {"measurement": "effect on growth of Candida albicans", "setting": "[2]", "value": "completely inhibited C. albicans growth"}
    ]},
    {"molecule": "OC(Cn1cncn1)(Cn1cncn1)c1ccc(F)cc1F", "note": "[fluconazole]", "values": [
      {"measurement": "effect on growth of Aspergillus niger", "setting": "[1]", "value": "no effect on the growth"},
      {"measurement": "effect on growth of Candida albicans", "setting": "[2]", "value": "no effect on the growth"}
    ]},
    {"molecule": "B1", "values": [
      {"measurement": "cell count and morphological features versus control", "setting": "[3]", "value": "Some of the treated cells died in comparison with the control and the rest became swollen and/or deformed"}
    ]},
    {"molecule": "B2", "values": [
      {"measurement": "cell count and morphological features versus control", "setting": "[3]", "value": "A portion of the treated cells died in comparison with the control and the rest became swollen and/or deformed"}
    ]},
    {"molecule": "B3", "values": [
      {"measurement": "cell count and morphological features versus control", "setting": "[3]", "value": "Cell swelling occurred in certain cells"}
    ]}
  ]
}
